In the NIST ThermoML archive (doi:10.1016/j.jct.2015.06.036):

Test: xn = mol fraction of the nth substance listed
Settings: 101 kPa, Liquid; for viscosity: Falling or rolling sphere viscometry; for speed of sound: Sing-around technique in a fixed-path interferometer; for mass density: Vibrating tube method

CCCCn1cc[n+](C)c1.F[B-](F)(F)F [1-butyl-3-methylimidazolium tetrafluoroborate] + CO
Settings	mass density [kg/m3]	speed of sound [m/s]	viscosity [mPa·s]
278.15 K, x1 = 0.0501	893	1239	1.07
278.15 K, x1 = 0.0999	954.2	1294	1.7
278.15 K, x1 = 0.1498	999.7	1341	2.36
278.15 K, x1 = 0.2	1035.5	1383	3.35
278.15 K, x1 = 0.2999	1087.2	1447	6.22
278.15 K, x1 = 0.4008	1122.5	1493	11.1
278.15 K, x1 = 0.4995	1147.9	1527	20.6
278.15 K, x1 = 0.5999	1167.9	1552	35.3
278.15 K, x1 = 0.6991	1183.3	1573	60.2
278.15 K, x1 = 0.8006	1196.4	1589	108
278.15 K, x1 = 0.8494	1201.6	1596	143
278.15 K, x1 = 0.9006	1206.9	1603	196
278.15 K, x1 = 0.9501	1211.4	1611	264
278.15 K, x1 = 1	1215.9	1615	361
288.15 K, x1 = 0.0501	884	1209	0.905
288.15 K, x1 = 0.0999	945.5	1266	1.4
288.15 K, x1 = 0.1498	991.2	1315	1.91
288.15 K, x1 = 0.2	1027.2	1356	2.65
288.15 K, x1 = 0.2999	1079.1	1422	4.73
288.15 K, x1 = 0.4008	1114.6	1468	8.1
288.15 K, x1 = 0.4995	1140.2	1502	14.5
288.15 K, x1 = 0.5999	1160.3	1527	23.7
288.15 K, x1 = 0.6991	1175.9	1548	38.2
288.15 K, x1 = 0.8006	1189	1564	64.8
288.15 K, x1 = 0.8494	1194.3	1571	82.5
288.15 K, x1 = 0.9006	1199.6	1578	110
288.15 K, x1 = 0.9501	1204	1586	143
288.15 K, x1 = 1	1208.5	1590	186
298.15 K, x1 = 0.0501	875	1179	0.779
298.15 K, x1 = 0.0999	936.8	1238	1.18
298.15 K, x1 = 0.1498	982.8	1288	1.58
298.15 K, x1 = 0.2	1018.9	1331	2.16
298.15 K, x1 = 0.2999	1071	1397	3.73
298.15 K, x1 = 0.4008	1106.8	1443	6.18
298.15 K, x1 = 0.4995	1132.5	1477	10.7
298.15 K, x1 = 0.5999	1152.8	1503	16.9
298.15 K, x1 = 0.6991	1168.5	1524	25.8
298.15 K, x1 = 0.8006	1181.7	1540	41.5
298.15 K, x1 = 0.8494	1187.1	1547	51.6
298.15 K, x1 = 0.9006	1192.4	1554	66.9
298.15 K, x1 = 0.9501	1196.9	1562	83.8
298.15 K, x1 = 1	1201.3	1565	105
308.15 K, x1 = 0.0501	866	1150	0.679
308.15 K, x1 = 0.0999	928.1	1211	1.01
308.15 K, x1 = 0.1498	974.3	1262	1.33
308.15 K, x1 = 0.2	1010.6	1305	1.8
308.15 K, x1 = 0.2999	1063.1	1372	3.02
308.15 K, x1 = 0.4008	1099	1418	4.88
308.15 K, x1 = 0.4995	1124.9	1454	8.17
308.15 K, x1 = 0.5999	1145.3	1479	12.7
308.15 K, x1 = 0.6991	1161.1	1500	18.5
308.15 K, x1 = 0.8006	1174.5	1517	28.4
308.15 K, x1 = 0.8494	1179.9	1524	34.4
308.15 K, x1 = 0.9006	1185.3	1531	43.3
308.15 K, x1 = 0.9501	1189.8	1538	53.3
308.15 K, x1 = 1	1194.2	1542	64.8
318.15 K, x1 = 0.0501	857	1121	0.6
318.15 K, x1 = 0.0999	919.4	1184	0.873
318.15 K, x1 = 0.1498	965.8	1236	1.14
318.15 K, x1 = 0.2	1002.4	1280	1.52
318.15 K, x1 = 0.2999	1055.1	1348	2.51
318.15 K, x1 = 0.4008	1091.3	1394	3.96
318.15 K, x1 = 0.4995	1117.4	1430	6.45
318.15 K, x1 = 0.5999	1137.9	1456	9.83
318.15 K, x1 = 0.6991	1153.8	1477	13.7
318.15 K, x1 = 0.8006	1167.3	1493	20.4
318.15 K, x1 = 0.8494	1172.7	1501	24.2
318.15 K, x1 = 0.9006	1178.2	1508	30
318.15 K, x1 = 0.9501	1182.7	1515	36
318.15 K, x1 = 1	1187.2	1519	42.7

CCn1cc[n+](C)c1.F[B-](F)(F)F [1-ethyl-3-methylimidazolium tetrafluoroborate] + CO
Settings	mass density [kg/m3]	speed of sound [m/s]	viscosity [mPa·s]
278.15 K, x1 = 0.0499	896.8	1233	0.998
278.15 K, x1 = 0.0998	965.1	1283	1.43
278.15 K, x1 = 0.1498	1019.5	1336	1.92
278.15 K, x1 = 0.1998	1062.4	1384	2.52
278.15 K, x1 = 0.3002	1127.9	1465	4.08
278.15 K, x1 = 0.4004	1174.8	1523	6.45
278.15 K, x1 = 0.5001	1209.6	1565	9.84
278.15 K, x1 = 0.6004	1237.2	1597	15.3
278.15 K, x1 = 0.6987	1258.7	1623	24.6
278.15 K, x1 = 0.8005	1277.4	1644	38.9
278.15 K, x1 = 0.8486	1284.8	1653	47.9
278.15 K, x1 = 0.8987	1292.3	1661	61.5
278.15 K, x1 = 0.9476	1298.6	1669	76.5
278.15 K, x1 = 1	1305.3	1677	101
288.15 K, x1 = 0.0499	887.8	1204	0.848
288.15 K, x1 = 0.0998	956.3	1259	1.19
288.15 K, x1 = 0.1498	1010.9	1313	1.57
288.15 K, x1 = 0.1998	1053.8	1361	2.03
288.15 K, x1 = 0.3002	1119.4	1441	3.24
288.15 K, x1 = 0.4004	1166.5	1499	5.01
288.15 K, x1 = 0.5001	1201.4	1540	7.49
288.15 K, x1 = 0.6004	1229.1	1572	11.3
288.15 K, x1 = 0.6987	1250.7	1598	17.7
288.15 K, x1 = 0.8005	1269.5	1619	26.8
288.15 K, x1 = 0.8486	1276.9	1628	32.3
288.15 K, x1 = 0.8987	1284.5	1636	40.2
288.15 K, x1 = 0.9476	1290.9	1644	48.7
288.15 K, x1 = 1	1297.6	1653	62
298.15 K, x1 = 0.0499	878.7	1176	0.732
298.15 K, x1 = 0.0998	947.5	1233	1.01
298.15 K, x1 = 0.1498	1002.2	1289	1.32
298.15 K, x1 = 0.1998	1045.3	1337	1.69
298.15 K, x1 = 0.3002	1111	1418	2.66
298.15 K, x1 = 0.4004	1158.2	1475	4.03
298.15 K, x1 = 0.5001	1193.3	1516	5.91
298.15 K, x1 = 0.6004	1221.1	1548	8.69
298.15 K, x1 = 0.6987	1242.8	1575	13.3
298.15 K, x1 = 0.8005	1261.7	1596	19.5
298.15 K, x1 = 0.8486	1269.2	1605	22.9
298.15 K, x1 = 0.8987	1276.8	1613	28
298.15 K, x1 = 0.9476	1283.2	1621	33.2
298.15 K, x1 = 1	1290	1629	41
308.15 K, x1 = 0.0499	869.6	1147	0.642
308.15 K, x1 = 0.0998	938.7	1208	0.872
308.15 K, x1 = 0.1498	993.6	1265	1.13
308.15 K, x1 = 0.1998	1036.8	1314	1.44
308.15 K, x1 = 0.3002	1102.7	1394	2.23
308.15 K, x1 = 0.4004	1150	1451	3.33
308.15 K, x1 = 0.5001	1185.3	1493	4.79
308.15 K, x1 = 0.6004	1213.2	1525	6.91
308.15 K, x1 = 0.6987	1235	1551	10.4
308.15 K, x1 = 0.8005	1254	1573	14.9
308.15 K, x1 = 0.8486	1261.5	1581	17.1
308.15 K, x1 = 0.8987	1269.1	1589	20.5
308.15 K, x1 = 0.9476	1275.6	1598	23.8
308.15 K, x1 = 1	1282.4	1606	28.8
318.15 K, x1 = 0.0499	860.5	1119	0.57
318.15 K, x1 = 0.0998	929.8	1182	0.772
318.15 K, x1 = 0.1498	984.9	1241	0.979
318.15 K, x1 = 0.1998	1028.3	1290	1.24
318.15 K, x1 = 0.3002	1094.4	1371	1.9
318.15 K, x1 = 0.4004	1141.9	1428	2.81
318.15 K, x1 = 0.5001	1177.3	1470	3.98
318.15 K, x1 = 0.6004	1205.4	1502	5.65
318.15 K, x1 = 0.6987	1227.2	1528	8.37
318.15 K, x1 = 0.8005	1246.3	1550	11.7
318.15 K, x1 = 0.8486	1253.9	1559	13.2
318.15 K, x1 = 0.8987	1261.6	1567	15.7
318.15 K, x1 = 0.9476	1268	1575	17.8
318.15 K, x1 = 1	1274.9	1583	21.2
